Reference: patent publication US20210395210A1, “INHIBITION OF BACTERIAL CHAPERONIN SYSTEMS” (THE TRUSTEES OF INDIANA UNIVERSITY, priority 2018, published 2021)
Read-outs that look alike come from different tables or passages of the source.

Experiments:
[1] = tested on: Enterococcus faecium (ATCC 19434); assay: Bacterial proliferation assay, E. faecium; type: cell-based
How it was run: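 Enterococcus faecium ATCC 19434 was grown overnight at 37° C. in BHI broth supplemented with 25 mg/L Ca^2+ and 12.5 mg/L Mg^2+, subcultured 1:5, and diluted to OD600 0.017. 30 μL portions went into 384-well plates holding compounds, sealed with oxygen-permeable membranes, and incubated stagnant at 37° C. OD600 was read at 24 h to give EC50.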

[2] = tested on: Pseudomonas aeruginosa (ATCC 10145); assay: Bacterial proliferation assay, P. aeruginosa; type: cell-based
How it was run: (§1)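 Cultures in BHI broth with 25 mg/L Ca2+ and 12.5 mg/L Mg2+ were diluted to OD600 0.017 and exposed to compounds in 384-well plates at 37 °C without shaking. OD600 was read at 6-8 h (S. aureus, E. cloacae, P. aeruginosa) or 24 h (A. baumannii). EC50 values were averaged over quadruplicates.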

[3] = target: T1, human HSP60/10 (Homo sapiens, UniProt P10809); assay: HSP60/10-mediated dMDH refolding assay; type: biochemical; conditions: human HSP60/10-dMDH refolding assay
T1 construct: octa-Histidine tag (TEV-cleavable) (N, cleaved yes); made in house; host or cells: HSP60 in E. coli Rosetta 2 (DE3); HSP10 in Rosetta 2 (DE3) pLysS
How it was run: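 Preformed HSP60/10 (or GroEL/ES) complex with guanidine-denatured pig heart MDH was started with ATP (during refolding: 50 nM HSP60, 60 nM HSP10, 12 nM dMDH, 1 mM ATP; compounds 100 μM to 46 nM) at 37° C, then EDTA-quenched. Refolded MDH activity read as A340 NADH consumption with mesoxalate.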

[4] = tested on: Klebsiella Pneumonia (ATCC 13883); assay: Bacterial proliferation assay, K. pneumoniae; type: cell-based
How it was run: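 Klebsiella pneumoniae ATCC 13883 was cultured in Brain Heart Infusion medium supplemented with 25 mg/L Ca^2+ and 12.5 mg/L Mg^2+. Cells were diluted to OD600 0.017, and 30 μL was added to 384-well plates holding 0.5 μL compound in 20 μL media. Plates were incubated stagnantly at 37° C., and OD600 was read at 6-8 h to determine EC50.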

[5] = tested on: Drug sensitive Staphylococcus aureus (ATCC 25923); assay: Bacterial proliferation assay, drug sensitive S. aureus; type: cell-based
How it was run: as §1

[6] = ATCC19434, OD600 at 24 h, read-out: Bacterial Proliferation EC50 E. faecium
[7] = ATCC19434, log of EC50 (μM scale), with standard deviation, read-out: log(EC50) Bacterial Proliferation Assay C. faecium (converted)
[8] = ATCC10145, OD600 at 6-8 h, read-out: Bacterial Proliferation EC50 P. aeruginosa
[9] = ATCC10145, log of EC50 (μM scale), with standard deviation, read-out: log(EC50) Bacterial Proliferation Assay P. aeruginosa (converted)
[10] = read-out: HSP60/10-dMDH Refolding IC50
[11] = log(IC50) ± standard deviation, read-out: HSP60/10-dMDH Refolding Assay log(IC50) (converted)
[12] = ATCC13883, OD600 at 6-8 h, read-out: Bacterial Proliferation EC50 K. pneumoniae
[13] = ATCC13883, log of EC50 (μM scale), with standard deviation, read-out: log(EC50) Bacterial Proliferation Assay K. pneumoniae (converted)
[14] = ATCC25923, OD600 at 6-8 h, read-out: Bacterial Proliferation EC50 S. aureus Sensitive
[15] = ATCC25923, log of EC50 (μM scale), with standard deviation, read-out: log(EC50) Bacterial Proliferation Assay S. aureus Sensitive (converted)

T1 sequence (P10809 27-573): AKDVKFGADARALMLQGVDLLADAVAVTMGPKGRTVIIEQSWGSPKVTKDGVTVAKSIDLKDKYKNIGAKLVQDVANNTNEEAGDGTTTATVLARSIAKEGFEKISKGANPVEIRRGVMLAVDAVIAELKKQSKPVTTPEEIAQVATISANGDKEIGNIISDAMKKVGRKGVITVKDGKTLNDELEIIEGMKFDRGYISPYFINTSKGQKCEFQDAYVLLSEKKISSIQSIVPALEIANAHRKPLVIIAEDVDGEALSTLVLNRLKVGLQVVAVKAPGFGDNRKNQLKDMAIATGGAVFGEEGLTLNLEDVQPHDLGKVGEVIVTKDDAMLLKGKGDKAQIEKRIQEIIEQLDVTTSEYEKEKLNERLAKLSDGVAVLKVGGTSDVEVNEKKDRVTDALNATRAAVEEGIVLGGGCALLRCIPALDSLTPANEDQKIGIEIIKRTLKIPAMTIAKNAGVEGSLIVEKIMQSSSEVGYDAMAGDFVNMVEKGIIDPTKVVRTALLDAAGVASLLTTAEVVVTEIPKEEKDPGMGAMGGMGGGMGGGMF

`COc1ccc(Br)cc1C(=O)Nc1ccccc1` [Compound 43, 5-Bromo-2-methoxy-N-phenylbenzamide] showed an EC50 [1, 6] greater than 100 µM, an EC50 [1, 7] greater than 100 µM and an EC50 [2, 8] greater than 100 µM. It also gave an EC50 [2, 9] greater than 100 µM, an IC50 [3, 10] greater than 100 µM and an IC50 [3, 11] greater than 100 µM. The EC50 [4, 12] was greater than 100 µM, the EC50 [4, 13] was greater than 100 µM and the EC50 [5, 14] was greater than 100 µM. It also gave an EC50 [5, 15] greater than 100 µM.
Work on `COc1c(Br)cccc1C(=O)Nc1ccc(Sc2nc3ccccc3s2)cc1` [Compound 34, N-(4-(Benzo[d]thiazol-2-ylthio)phenyl)-3-bromo-2-methoxybenzamide] yielded an EC50 [1, 6] greater than 100 µM, an EC50 [1, 7] greater than 100 µM and an EC50 [2, 8] greater than 100 µM. The EC50 [2, 9] was greater than 100 µM, the IC50 [3, 10] was greater than 100 µM and the IC50 [3, 11] was greater than 100 µM. It also gave an EC50 [4, 12] greater than 100 µM, an EC50 [4, 13] greater than 100 µM and an EC50 [5, 14] greater than 100 µM. The EC50 [5, 15] was greater than 100 µM.
For `CO[C@H]1/C=C/O[C@@]2(C)Oc3c(C)c(O)c4c(O)c(c(/C=N/N5CCN(C)CC5)c(O)c4c3C2=O)NC(=O)/C(C)=C\C=C\[C@H](C)[C@H](O)[C@@H](C)[C@@H](O)[C@@H](C)[C@H](OC(C)=O)[C@@H]1C` [Rifampicin, rifampicin, reference compound], the EC50 [1, 6] was 0.13 µM, the EC50 [1, 7] was 0.126 µM and the EC50 [2, 8] was 7.8 µM. For the same compound, the EC50 [2, 9] was 7.76 µM, the IC50 [3, 10] was greater than 100 µM and the IC50 [3, 11] was greater than 100 µM. It also gave an EC50 [4, 12] of 11 µM, an EC50 [4, 13] of 11 µM and an EC50 [5, 14] of less than 0.05 µM. For the same compound, the EC50 [5, 15] was less than 0.0501 µM.
Work on `O=C(Nc1cccc(Cl)c1)c1ccccc1O` [Compound 12, N-(3-Chlorophenyl)-2-hydroxybenzamide] yielded an EC50 [1, 6] greater than 100 µM, an EC50 [1, 7] greater than 100 µM and an EC50 [2, 8] greater than 100 µM. The EC50 [2, 9] was greater than 100 µM, the IC50 [3, 10] was greater than 100 µM and the IC50 [3, 11] was greater than 100 µM. For the same compound, the EC50 [4, 12] was greater than 100 µM, the EC50 [4, 13] was greater than 100 µM and the EC50 [5, 14] was 3.1 µM. It also gave an EC50 [5, 15] of 3.09 µM.
Work on `COc1c(Br)cc(Br)cc1C(=O)Nc1ccc(Sc2nc3ccccc3s2)cc1` [Compound 33, N-(4-(Benzo[d]thiazol-2-ylthio)phenyl)-3,5-dibromo-2-methoxybenzamide] yielded an EC50 [1, 6] greater than 100 µM, an EC50 [1, 7] greater than 100 µM and an EC50 [2, 8] greater than 100 µM. It also gave an EC50 [2, 9] greater than 100 µM, an IC50 [3, 10] greater than 100 µM and an IC50 [3, 11] greater than 100 µM. For the same compound, the EC50 [4, 12] was greater than 100 µM, the EC50 [4, 13] was greater than 100 µM and the EC50 [5, 14] was greater than 100 µM. The EC50 [5, 15] was greater than 100 µM.
`COc1ccccc1C(=O)Nc1ccc(Sc2nc3ccccc3s2)c(Cl)c1` [Compound 32, N-(4-(Benzo[d]thiazol-2-ylthio)-3-chlorophenyl)-2-methoxybenzamide] gave an EC50 [1, 6] greater than 100 µM, an EC50 [1, 7] greater than 100 µM and an EC50 [2, 8] greater than 100 µM. The EC50 [2, 9] was greater than 100 µM, the IC50 [3, 10] was greater than 100 µM and the IC50 [3, 11] was greater than 100 µM. It also gave an EC50 [4, 12] greater than 100 µM, an EC50 [4, 13] greater than 100 µM and an EC50 [5, 14] greater than 100 µM. It also gave an EC50 [5, 15] greater than 100 µM.
`O=C(Nc1cccc(Cl)c1)c1cc(Br)ccc1O` [Compound 11, 5-Bromo-N-(3-chlorophenyl)-2-hydroxybenzamide] gave an EC50 ([1]; ATCC19434, 24 h, read-out: Bacterial Proliferation EC50 E. faecium) greater than 100 µM, an EC50 ([1]; ATCC19434, read-out: log(EC50) Bacterial Proliferation Assay C. faecium (converted)) greater than 100 µM and an EC50 ([2]; ATCC10145, read-out: Bacterial Proliferation EC50 P. aeruginosa) greater than 100 µM. For the same compound, the EC50 ([2]; ATCC10145, read-out: log(EC50) Bacterial Proliferation Assay P. aeruginosa (converted)) was greater than 100 µM, the IC50 [3, 10] was greater than 100 µM and the IC50 [3, 11] was greater than 100 µM. It also gave an EC50 ([4]; ATCC13883, read-out: Bacterial Proliferation EC50 K. pneumoniae) greater than 100 µM, an EC50 ([4]; ATCC13883, read-out: log(EC50) Bacterial Proliferation Assay K. pneumoniae (converted)) greater than 100 µM and an EC50 ([5]; ATCC25923, read-out: Bacterial Proliferation EC50 S. aureus Sensitive) of 0.46 µM. It also gave an EC50 ([5]; ATCC25923, read-out: S. aureus Proliferation & Biofilm Assay EC50 Planktonic Growth) of 0.46 µM and an EC50 ([5]; ATCC25923, read-out: log(EC50) Bacterial Proliferation Assay S. aureus Sensitive (converted)) of 0.457 µM.
Compound `O=C(Nc1ccc(Sc2nc3ccccc3s2)cc1)c1ccccc1O` [Compound 8, N-(4-(Benzo[d]thiazol-2-ylthio)phenyl)-2-hydroxybenzamide] has an EC50 [1, 6] of 67 µM, an EC50 [1, 7] of 67.6 µM and an EC50 [2, 8] greater than 100 µM. The EC50 [2, 9] was greater than 100 µM, the IC50 [3, 10] was greater than 100 µM and the IC50 [3, 11] was greater than 100 µM. For the same compound, the EC50 [4, 12] was greater than 100 µM, the EC50 [4, 13] was greater than 100 µM and the EC50 [5, 14] was 0.2 µM. The EC50 [5, 15] was 0.204 µM.
Work on `O=C(Nc1ccccc1)c1cc(Br)cc(Br)c1` [Compound 26, 3,5-Dibromo-N-phenylbenzamide] yielded an EC50 [1, 6] greater than 100 µM, an EC50 [1, 7] greater than 100 µM and an EC50 [2, 8] greater than 100 µM. It also gave an EC50 [2, 9] greater than 100 µM, an IC50 [3, 10] greater than 100 µM and an IC50 [3, 11] greater than 100 µM. It also gave an EC50 [4, 12] greater than 100 µM, an EC50 [4, 13] greater than 100 µM and an EC50 [5, 14] greater than 100 µM. The EC50 [5, 15] was greater than 100 µM.
